Read-outs that look alike come from different tables or passages of the source.
Tests used:
A549 (lung) cancer cells = assay: MTT cytotoxicity assay, A549; type: cell-based
Procedure: (§1) CEM (lymphoma), A549 (lung), PC-3 (prostate), MIA PaCa-2 (pancreatic), MCF-7 and MDA-MB-231 (breast) cancer cells were purchased from ATCC. PC3, A549, MDA-MB-231 and CEM were cultured in RPMI-1640 medium supplemented with 10% Fetal Bovine Serum (FBS) and 1% penicillin/streptomycin. MIA PaCa-2 and MCF-7 cells were cultured in DMEM supplemented with 10% FBS and 1% penicillin/streptomycin. Primary human dermal fibroblasts (HDF) from the dermis of normal human neonatal foreskin were obtained from the Dermatology Department, Emory University. MTT dye (Thiazolyl Blue Tetrazolium Bromide) dimethyl sulfoxide (DMSO), propidium iodide and RNase were purchased from Sigma (St. Louis, Mo.). Cells were cultured at 37° C. with 5% CO2.
(§2) MTT (3-(4,5-dimethylthiazol-2-yl)-2,5-diphenyltetrazolium bromide) assay was employed to evaluate the proliferative capacity of cells. Essentially, MTT is a colorimetric assay, which utilizes the […] tetrazolium dye and converts it into a colored formazan salt, which can be quantified by measuring absorbance at 570 nm. Briefly, a 96-well format was used to seed […] medium containing cells at a density of 5×10^3 cellsper well. After 24 h of incubation, cells were treated with gradient concentration of the test compounds, which were dissolved in DMSO. The final concentration of DMSO in the culture medium was maintained at 0.1%. After 48 h of drug incubation, the spent medium was removed and the wells were washed twice with PBS. 100 μl of fresh medium and 10 μl of MTT (5 mg/ml in PBS) was added to the wells and cells were incubated at 37° C. in dark for 4 h. The formazan product was dissolved by adding 100 μl of 100% DMSO after removing the medium from each well. The absorbance was measured at 570 nm using a Spectra Max Plus multi-well plate reader (Molecular Devices, USA).

[1] = system: CEM (lymphoma) cancer cells; assay: MTT cytotoxicity assay, CEM; type: cell-based; details: 48 h drug incubation
Procedure: as §1, §2

[2] = system: MCF-7 (breast) cancer cells; assay: MTT cytotoxicity assay, MCF-7; type: cell-based
Procedure: as §1, §2

[3] = system: MIA PaCa-2 (pancreatic) cancer cells; assay: MTT cytotoxicity assay, MIA PaCa-2; type: cell-based
Procedure: as §1, §2

[4] = system: PC-3 (prostate) cancer cells; assay: MTT cytotoxicity assay, PC-3; type: cell-based; details: 48 h drug incubation
Procedure: as §1, §2

[5] = system: cancer cell lines (A549, CEM, MCF-7, MIA PaCa-2, PC-3); assay: MTT cytotoxicity assay, several cancer cell lines together; type: cell-based; details: for antiproliferative activity, comparison in words: across cell lines of Table 3
Procedure: as §1, §2

MDA-MB-231 cells = assay: Cell-cycle analysis by flow cytometry; type: cell-based; details: 25 μM; for G2/M population up to 24 h: 12 and 24 h
Procedure: Flow-cytometric evaluation of the cell-cycle status was performed as described previously. Control and drug treated cells were centrifuged, washed with ice-cold PBS, and fixed in 70% ethanol. Tubes containing the cell pellets were stored at 4° C. for at least 24 h. Cells were then centrifuged at 1000 g for 10 min and the supernatant was discarded. The pellets were washed twice with 5 ml of PBS and then stained with 0.5 ml of propidium iodide (0.1% in 0.6% Triton-X in PBS) and 0.5 ml of RNase A (2 mg/ml) for 45 min in dark. Samples were then analyzed on a BD FACSCanto II flow-cytometer (BD Biosciences, Sparks, Md.).
To gain further insights into the precise mechanisms responsible for inhibition of cellular proliferation, we next examined the effect of benzofuranone ring substituted analogs on cell cycle distribution profiles of breast cancer MDA-MB-231 cells. The effect of compounds 3-7 on mitotic index (percent G2/M cells) and apoptotic index (percent sub-G1 cells) as a function of time in MDA-MB-231 cells was studied using fluorescence activated cell sorting (FACS) analysis. All 5 compounds were used at 25 μM concentration over 48 h of treatment.
Although staining of DNA with propidium iodide is extremely useful to determine the percent cell population in various cell-cycle phases, it has its limitations. For example, it cannot dissect out the differences between G2 and M phases as both have 4N DNA amounts. Thus, to explore further, a mitosis specific marker, MPM-2, was used to distinctly identify which phase the cells were in.

[6] = Homo sapiens, A549, 48 h drug incubation
[7] = Homo sapiens, MCF7, 48 h drug incubation
[8] = Homo sapiens, MIA PaCa-2, 48 h drug incubation

Compound	IC50 (A549 (lung) cancer cells; 48 h drug incubation) [µM]	IC50 [1] [µM]	IC50 ([2]; 48 h drug incubation) [µM]	IC50 ([3]; 48 h drug incubation) [µM]	IC50 [4] [µM]	IC50 ([5]; majority of the cell lines, read-out: IC50 values, majority of the cell lines) [µM]	IC50 (A549 (lung) cancer cells; [6]) [µM]	IC50 [2, 7] [µM]	IC50 [3, 8] [µM]	antiproliferative activity, comparison in words [5]	G2/M population up to 24 h (MDA-MB-231 cells)	G2/M population at 48 h (MDA-MB-231 cells; 48 h)	apoptotic index (sub-G1) (MDA-MB-231 cells; 48 h)	duration of G2 arrest (MDA-MB-231 cells; MPM-2 marker)	melting point [°C]	IC50 ([5]; lung, lymphoma, pancreatic and prostate, read-out: IC50 values, lung, lymphoma, pancreatic and prostate cancer cells) [µM]	IC50 ([5]; lung, pancreatic and prostate, read-out: IC50 values, lung, pancreatic and prostate cancer cells) [µM]
COc1ccc2c(c1OC(=O)Nc1ccccc1)C(=O)O[C@@H]2[C@H]1c2c(cc3c(c2OC)OCO3)CCN1C [Compound 6, (S)-5-methoxy-1-0)-4-methoxy-6-methyl-5,6,7,8-tetrahydro-[1,3]dioxolo[4,5-g]isoquinolin-5-yl)-3-oxo-1,3-dihydroisobenzofuran-4-yl phenylcarbamate]	50	250	182	1	83.2	50 to 250											
COc1ccc2c(c1OC(=O)NCc1ccccc1)C(=O)O[C@@H]2[C@H]1c2c(cc3c(c2OC)OCO3)CCN1C [Compound 7, (S)-5-methoxy-1-((R)-4-methoxy-6-methyl-5,6,7,8-tetrahydro-[1,3]dioxolo[4,5-g]isoquinolin-5-yl)-3-oxo-1,3-dihydroisobenzofuran-4-yl benzylcarbamate]		7.1			49		25	74.1	24.5	relatively lower IC50 values when compared to compound 6							
COc1ccc2c(c1OC)C(=O)O[C@@H]2[C@H]1c2c(cc3c(c2OC)OCO3)CCN1C [Noscapine]		20			51		73	45	70								
CCNC(=O)Oc1c(OC)ccc2c1C(=O)O[C@@H]2[C@H]1c2c(cc3c(c2OC)OCO3)CCN1C [Compound 5]	5.6	1.7	49	49	6.6						G2/M population increased considerably	mostly remained arrested in G2/M phase	lower compared to compound 3	the arrest was maintained until 48 h			
COc1ccc2c(c1O)C(=O)O[C@@H]2[C@H]1c2c(cc3c(c2OC)OCO3)CCN1C [Compound 2, (S)-7-hydroxy-6-methoxy-3-((R)-4-methoxy-6-methyl-5,6,7,8-tetrahydro[1,3]dioxolo-[4,5-g]isoquinolin-5-yl)isobenzofuran-1(3H)-one]															142 to 143		
COc1ccc2c(c1OC(C)=O)C(=O)O[C@@H]2[C@H]1c2c(cc3c(c2OC)OCO3)CCN1C [Compound 3, (S)-5-methoxy-1-(R)-4-methoxy-6-methyl-5,6,7,8-tetrahydro-[1,3]dioxolo[4,5-g]isoquinolin-5-yl)-3-oxo-1,3-dihydroisobenzofuran-4-yl acetate]	3.2	15.5	166	1	9.3					generally most-effective against most cell lines	G2/M population increased considerably	G2/M population decreased significantly				1 to 15	
COc1ccc2c(c1OC(=O)c1ccccc1)C(=O)O[C@@H]2[C@H]1c2c(cc3c(c2OC)OCO3)CCN1C [Compound 4, (S)-5-methoxy-1-(R)-4-methoxy-6-methyl-5,6,7,8-tetrahydro-[1,3]dioxolo[4,5-g]isoquinolin-5-yl)-3-oxo-1,3-dihydroisobenzofuran-4-yl benzoate]	4.5	49	34	1.7	4.8												< 5

From patent US20140121233A1, “Synthesis and Characterization of Second Generation Benzofuranone Ring Substituted Noscapine Analogs” (GEORGIA STATE UNIVERSITY RESEARCH FOUNDATION, INC., priority 2011, published 2014)
